Results taken from patent US8461328B2, “Tricyclic heterocyclic compounds, compositions and methods of use thereof” (Genentech, Inc., priority 2010, dated 2013).

Assays:
Assay type in all cases: biochemical
JAK1 = target: T1, JAK1 (Homo sapiens, UniProt P23458); experiment: JAK1 inhibition (Table 4); conditions: read-out: JAK1 Ki
T1 construct: made in house; host or cells: SF9 insect cells (baculovirus)

JAK2 = target: T2, JAK2 (Homo sapiens, UniProt O60674); experiment: JAK2 inhibition (Table 4); conditions: read-out: JAK2 Ki
T2 construct: made in house; host or cells: SF9 insect cells (baculovirus)
T2 sequence (O60674 812-1132): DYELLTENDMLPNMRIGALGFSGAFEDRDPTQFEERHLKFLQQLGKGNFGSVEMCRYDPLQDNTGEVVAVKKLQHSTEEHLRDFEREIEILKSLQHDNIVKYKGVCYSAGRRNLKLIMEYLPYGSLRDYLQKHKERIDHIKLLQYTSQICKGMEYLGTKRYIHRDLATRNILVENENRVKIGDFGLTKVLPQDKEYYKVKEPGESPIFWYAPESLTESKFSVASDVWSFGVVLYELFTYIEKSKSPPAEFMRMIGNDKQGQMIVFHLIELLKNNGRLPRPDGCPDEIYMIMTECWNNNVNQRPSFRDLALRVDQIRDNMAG

JAK3 = target: T3, JAK3 (Homo sapiens, UniProt P52333); experiment: JAK3 inhibition (Table 4); conditions: read-out: JAK3 Ki
T3 construct: made in house; host or cells: SF9 insect cells (baculovirus)
T3 sequence (P52333 783-1124): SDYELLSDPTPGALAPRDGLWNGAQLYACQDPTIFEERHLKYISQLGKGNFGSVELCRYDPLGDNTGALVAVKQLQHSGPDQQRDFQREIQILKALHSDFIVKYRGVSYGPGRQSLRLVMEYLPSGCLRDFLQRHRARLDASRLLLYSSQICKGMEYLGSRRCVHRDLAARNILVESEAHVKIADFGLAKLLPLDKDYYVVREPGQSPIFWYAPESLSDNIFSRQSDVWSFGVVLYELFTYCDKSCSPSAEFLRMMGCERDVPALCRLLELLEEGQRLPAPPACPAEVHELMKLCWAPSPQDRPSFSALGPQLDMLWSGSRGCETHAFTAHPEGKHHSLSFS

TYK2 = target: T4, TYK2 (Homo sapiens, UniProt P29597); experiment: TYK2 inhibition (Table 4)
T4 construct: made in house; host or cells: SF9 insect cells (baculovirus)
T4 sequence (P29597 873-1187): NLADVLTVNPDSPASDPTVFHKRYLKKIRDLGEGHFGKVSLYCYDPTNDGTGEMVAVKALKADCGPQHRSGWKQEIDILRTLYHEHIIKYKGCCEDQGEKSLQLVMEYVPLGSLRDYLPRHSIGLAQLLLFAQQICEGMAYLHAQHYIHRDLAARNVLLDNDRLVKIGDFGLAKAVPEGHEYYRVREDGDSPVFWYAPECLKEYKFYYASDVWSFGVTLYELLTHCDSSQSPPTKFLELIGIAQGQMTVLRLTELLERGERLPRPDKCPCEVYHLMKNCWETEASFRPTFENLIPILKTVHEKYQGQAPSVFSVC

T1 sequence (P23458 852-1154): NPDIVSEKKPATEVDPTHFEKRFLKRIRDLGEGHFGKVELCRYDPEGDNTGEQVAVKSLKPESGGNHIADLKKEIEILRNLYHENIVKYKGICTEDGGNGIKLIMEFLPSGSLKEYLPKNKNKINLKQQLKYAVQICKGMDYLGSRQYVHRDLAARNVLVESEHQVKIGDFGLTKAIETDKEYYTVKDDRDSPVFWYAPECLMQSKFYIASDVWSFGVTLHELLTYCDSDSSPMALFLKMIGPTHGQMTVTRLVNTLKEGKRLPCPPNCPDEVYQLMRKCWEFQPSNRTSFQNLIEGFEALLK

SMILES	Ki (JAK1) [nM]	Ki (JAK2) [nM]	Ki (JAK3) [nM]	Ki (TYK2) [nM]
OC(CN1CCC(n2cnc3cnc4[nH]ccc4c32)CC1)(C(F)(F)F)C(F)(F)F [Example 174, 1,1,1,3,3,3-Hexafluoro-2-[4-(6H-1,2,3,5,6-tetraaza-as-indacen-1-yl)-piperidin-1-ylmethyl]-propan-2-ol]	1.58	2.66	87.4	7.53
CN1CCC[C@H]1CN1CCC(n2cnc3cnc4[nH]ccc4c32)CC1 [Example 177, 1-[1-((S)-1-Methyl-pyrrolidin-2-ylmethyl)-piperidin-4-yl]-1,6-dihydro-1,2,3,5,6-tetraaza-as-indacene]	42	144	1400	519
Cc1nc2cnc3[nH]ccc3c2n1C1CCOC(C)(C)C1 (stereo not shown) [Example 178, 1-(2,2-Dimethyl-tetrahydro-pyran-4-yl)-2-methyl-1,6-dihydro-1,2,3,5,6-tetraaza-as-indacene]	73.8	22.3	16.2	104
FC1(F)CN(Cc2ccccc2)CCC1n1cnc2cnc3[nH]ccc3c21 (stereo not shown) [Example 179, 1-(1-Benzyl-3,3-difluoro-piperidin-4-yl)-1,6-dihydro-1,2,3,5,6-tetraaza-as-indacene]	0.58	1.11	13.2	21.6
O=CN1CCC(n2cnc3cnc4[nH]ccc4c32)C(F)(F)C1 (stereo not shown) [Example 180, 3,3-Difluoro-4-(6H-1,2,3,5,6-tetraaza-as-indacen-1-yl)-piperidine-1-carbaldehyde]	5.55	19.9	101	63.2
Cc1nc2cnc3[nH]ccc3c2n1-c1ccc(C#N)cc1 [Example 183, 4-(2-Methyl-6H-1,2,3,5,6-tetraaza-as-indacen-1-yl)-benzonitrile]	20.4	44.9	650	72.7
OCCN1CC[C@@H](n2cnc3cnc4[nH]ccc4c32)C1 [Example 184, 2-[(R)-3-(6H-1,2,3,5,6-Tetraaza-as-indacen-1-yl)-pyrrolidin-1-yl]-ethanol]	94.7	250	1490	644
N#CCCN1CC[C@@H](n2cnc3cnc4[nH]ccc4c32)C1 [Example 187, 3-[(R)-3-(6H-1,2,3,5,6-Tetraaza-as-indacen-1-yl)-pyrrolidin-1-yl]-propionitrile]	10.1	22.3	57.6	58.8

The remaining compounds from weak to strong by Ki (JAK1), led by results:

Ki (JAK1) [nM]	Ki (JAK2) [nM]	Ki (JAK3) [nM]	Ki (TYK2) [nM]	SMILES
220	167	3170	1500	CC(C)(C#N)C(=O)N1CC[C@@H](n2cnc3cnc4[nH]ccc4c32)C1 [Example 186, 2,2-Dimethyl-3-oxo-3-[(R)-3-(6H-1,2,3,5,6-tetraaza-as-indacen-1-yl)-pyrrolidin-1-yl]-propionitrile]
105	162	502	708	CC(C)(O)CN1CC[C@@H](n2cnc3cnc4[nH]ccc4c32)C1 [Example 185, 2-Methyl-1-[(R)-3-(6H-1,2,3,5,6-tetraaza-as-indacen-1-yl)-pyrrolidin-1-yl]-propan-2-ol]
92.9	334	1050	956	N#Cc1nc2cnc3[nH]ccc3c2n1C1CCNCC1 [Example 170, 1-Piperidin-4-yl-1,6-dihydro-1,2,3,5,6-tetraaza-as-indacene-2-carbonitrile]
68.5	161	778	672	CC(=O)N1CC[C@@H](n2cnc3cnc4[nH]ccc4c32)C1 [Example 188, 1-[(R)-3-(6H-1,2,3,5,6-Tetraaza-as-indacen-1-yl)-pyrrolidin-1-yl]-ethanone]
2.16	7.05	95.8	24.3	N#Cc1ccc(N[C@H]2CC[C@H](n3cnc4cnc5[nH]ccc5c43)CC2)nc1 [Example 176, Trans 6-[4-(6H-1,2,3,5,6-Tetraaza-as-indacen-1-yl)-cyclohexylamino]-nicotinonitrile]
